Data as given in ChEMBL document CHEMBL4507283, “Data for DCP probe BI-1935” (2021).

How the values were obtained:
[1] = biological target: Acetylcholinesterase (Homo sapiens) (UniProt P22303); experiment: ACHOLINEST Eurofins-Panlabs selectivity data (BI); conditions: Compound concentration 10.0 uM
[2] = biological target: Sodium-dependent noradrenaline transporter (Homo sapiens) (UniProt P23975); experiment: NETRANS/H Eurofins-Panlabs selectivity data (BI); conditions: Compound concentration 10.0 uM
[3] = biological target: Urotensin-2 receptor (Homo sapiens) (UniProt Q9UKP6); experiment: UROTENSIN_II Eurofins-Panlabs selectivity data (BI); conditions: Compound concentration 10.0 uM
[4] = tested on: Tyrosine-protein kinase ABL1 (Homo sapiens), P00519 [F317I]; conditions: Compound concentration 1000.0 nM
[5] = tested on: Tyrosine-protein kinase ABL1 (Homo sapiens), P00519 [F317L]; conditions: Compound concentration 1000.0 nM
[6] = tested on: Tyrosine-protein kinase ABL1 (Homo sapiens), P00519 [F317L]; conditions: Compound concentration 1000.0 nM; remark: listed apart in the source
[7] = biological target: RAC-alpha serine/threonine-protein kinase (Homo sapiens) (UniProt P31749); conditions: Compound concentration 1000.0 nM
[8] = biological target: 5'-AMP-activated protein kinase catalytic subunit alpha-1 (Homo sapiens) (UniProt Q13131); conditions: Compound concentration 1000.0 nM
[9] = biological target: Serine/threonine-protein kinase BRSK2 (Homo sapiens) (UniProt Q8IWQ3); conditions: Compound concentration 1000.0 nM
[10] = biological target: Cyclin-dependent kinase 11A (Homo sapiens) (UniProt Q9UQ88); conditions: Compound concentration 1000.0 nM
[11] = biological target: Cyclin-dependent kinase 4 (Homo sapiens) (UniProt P11802); conditions: Compound concentration 1000.0 nM
[12] = biological target: Dual specificity protein kinase CLK2 (Homo sapiens) (UniProt P49760); conditions: Compound concentration 1000.0 nM
[13] = biological target: Macrophage colony-stimulating factor 1 receptor (Homo sapiens) (UniProt P07333); conditions: Compound concentration 1000.0 nM
[14] = biological target: Casein kinase I isoform gamma-2 (Homo sapiens) (UniProt P78368); conditions: Compound concentration 1000.0 nM
[15] = biological target: Serine/threonine-protein kinase DCLK3 (Homo sapiens) (UniProt Q9C098); conditions: Compound concentration 1000.0 nM
[16] = biological target: Eukaryotic translation initiation factor 2-alpha kinase 1 (Homo sapiens) (UniProt Q9BQI3); conditions: Compound concentration 1000.0 nM
[17] = biological target: Ephrin type-B receptor 2 (Homo sapiens) (UniProt P29323); conditions: Compound concentration 1000.0 nM
[18] = biological target: Ephrin type-B receptor 4 (Homo sapiens) (UniProt P54760); conditions: Compound concentration 1000.0 nM
[19] = biological target: Mitogen-activated protein kinase 7 (Homo sapiens) (UniProt Q13164); conditions: Compound concentration 1000.0 nM
[20] = biological target: Fibroblast growth factor receptor 1 (Homo sapiens) (UniProt P11362); conditions: Compound concentration 1000.0 nM
[21] = biological target: Fibroblast growth factor receptor 4 (Homo sapiens) (UniProt P22455); conditions: Compound concentration 1000.0 nM
[22] = biological target: Tyrosine-protein kinase FRK (Homo sapiens) (UniProt P42685); conditions: Compound concentration 1000.0 nM
[23] = tested on: eIF-2-alpha kinase GCN2 (Homo sapiens), Q9P2K8 [S808G]; conditions: Compound concentration 1000.0 nM
[24] = biological target: Tyrosine-protein kinase JAK1 (Homo sapiens) (UniProt P23458); conditions: Compound concentration 1000.0 nM
[25] = biological target: Mitogen-activated protein kinase 10 (Homo sapiens) (UniProt P53779); conditions: Compound concentration 1000.0 nM
[26] = biological target: Mitogen-activated protein kinase kinase kinase 1 (Homo sapiens) (UniProt Q13233); conditions: Compound concentration 1000.0 nM
[27] = biological target: Mitogen-activated protein kinase kinase kinase kinase 5 (Homo sapiens) (UniProt Q9Y4K4); conditions: Compound concentration 1000.0 nM
[28] = biological target: MAP kinase-activated protein kinase 2 (Homo sapiens) (UniProt P49137); conditions: Compound concentration 1000.0 nM
[29] = biological target: Serine/threonine-protein kinase MARK2 (Homo sapiens) (UniProt Q7KZI7); conditions: Compound concentration 1000.0 nM
[30] = biological target: MAP kinase-interacting serine/threonine-protein kinase 2 (Homo sapiens) (UniProt Q9HBH9); conditions: Compound concentration 1000.0 nM
[31] = biological target: Myosin-IIIb (Homo sapiens) (UniProt Q8WXR4); conditions: Compound concentration 1000.0 nM
[32] = biological target: Platelet-derived growth factor receptor beta (Homo sapiens) (UniProt P09619); conditions: Compound concentration 1000.0 nM
[33] = biological target: cGMP-dependent protein kinase 1 (Homo sapiens) (UniProt Q13976); conditions: Compound concentration 1000.0 nM
[34] = tested on: Proto-oncogene tyrosine-protein kinase receptor Ret (Homo sapiens), P07949 [M918T]; conditions: Compound concentration 1000.0 nM
[35] = biological target: Proto-oncogene tyrosine-protein kinase ROS (Homo sapiens) (UniProt P08922); conditions: Compound concentration 1000.0 nM
[36] = biological target: Ribosomal protein S6 kinase alpha-5 (Homo sapiens) (UniProt O75582); conditions: Compound concentration 1000.0 nM
[37] = biological target: Ribosomal protein S6 kinase beta-1 (Homo sapiens) (UniProt P23443); conditions: Compound concentration 1000.0 nM
[38] = biological target: Proto-oncogene tyrosine-protein kinase Src (Homo sapiens) (UniProt P12931); conditions: Compound concentration 1000.0 nM
[39] = biological target: Tyrosine-protein kinase Tec (Homo sapiens) (UniProt P42680); conditions: Compound concentration 1000.0 nM
[40] = biological target: Angiopoietin-1 receptor (Homo sapiens) (UniProt Q02763); conditions: Compound concentration 1000.0 nM
[41] = biological target: Serine/threonine-protein kinase tousled-like 1 (Homo sapiens) (UniProt Q9UKI8); conditions: Compound concentration 1000.0 nM
[42] = biological target: Serine/threonine-protein kinase tousled-like 2 (Homo sapiens) (UniProt Q86UE8); conditions: Compound concentration 1000.0 nM
[43] = biological target: Tyrosine-protein kinase Yes (Homo sapiens) (UniProt P07947); conditions: Compound concentration 1000.0 nM
[44] = biological target: Mitogen-activated protein kinase kinase kinase 19 (Homo sapiens) (UniProt Q56UN5); conditions: Compound concentration 1000.0 nM
Chain of Mitogen-activated protein kinase kinase kinase 19 (Homo sapiens) (Q56UN5 whole entry): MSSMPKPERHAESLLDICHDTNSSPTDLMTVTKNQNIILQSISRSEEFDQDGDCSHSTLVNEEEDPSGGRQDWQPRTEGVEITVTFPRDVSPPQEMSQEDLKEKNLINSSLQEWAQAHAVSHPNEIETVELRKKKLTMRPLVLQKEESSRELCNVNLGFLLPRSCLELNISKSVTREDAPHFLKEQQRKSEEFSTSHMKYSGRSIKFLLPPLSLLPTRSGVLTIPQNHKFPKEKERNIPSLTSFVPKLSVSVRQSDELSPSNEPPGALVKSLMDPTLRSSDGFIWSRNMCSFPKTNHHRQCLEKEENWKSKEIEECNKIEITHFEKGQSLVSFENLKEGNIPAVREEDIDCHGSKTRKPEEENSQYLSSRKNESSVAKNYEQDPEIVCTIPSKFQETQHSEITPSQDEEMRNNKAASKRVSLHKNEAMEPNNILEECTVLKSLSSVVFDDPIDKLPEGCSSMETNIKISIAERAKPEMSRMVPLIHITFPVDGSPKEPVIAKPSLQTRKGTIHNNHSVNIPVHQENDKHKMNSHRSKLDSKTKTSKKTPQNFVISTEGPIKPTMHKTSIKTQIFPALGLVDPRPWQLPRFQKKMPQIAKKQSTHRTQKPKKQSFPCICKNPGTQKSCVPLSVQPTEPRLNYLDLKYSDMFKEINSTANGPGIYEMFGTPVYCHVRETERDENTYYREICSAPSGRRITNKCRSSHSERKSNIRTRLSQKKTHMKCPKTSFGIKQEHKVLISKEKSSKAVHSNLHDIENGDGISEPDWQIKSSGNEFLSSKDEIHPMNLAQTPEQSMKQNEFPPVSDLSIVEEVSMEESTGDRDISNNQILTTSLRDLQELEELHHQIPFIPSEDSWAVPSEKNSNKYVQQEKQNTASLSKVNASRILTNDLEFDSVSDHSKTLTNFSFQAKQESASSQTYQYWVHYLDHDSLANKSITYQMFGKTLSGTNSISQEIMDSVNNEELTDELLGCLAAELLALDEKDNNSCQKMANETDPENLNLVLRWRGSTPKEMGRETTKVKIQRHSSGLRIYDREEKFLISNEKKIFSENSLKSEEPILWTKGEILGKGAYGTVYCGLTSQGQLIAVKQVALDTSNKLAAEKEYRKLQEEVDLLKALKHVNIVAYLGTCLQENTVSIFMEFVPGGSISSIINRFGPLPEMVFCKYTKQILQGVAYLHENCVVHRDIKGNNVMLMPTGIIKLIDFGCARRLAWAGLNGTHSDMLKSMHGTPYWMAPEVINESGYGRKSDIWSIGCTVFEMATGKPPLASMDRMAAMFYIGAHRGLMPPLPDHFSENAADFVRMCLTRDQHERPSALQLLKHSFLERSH

Chain of Tyrosine-protein kinase ABL1 (Homo sapiens), P00519 [F317L] (P00519 whole entry F317L): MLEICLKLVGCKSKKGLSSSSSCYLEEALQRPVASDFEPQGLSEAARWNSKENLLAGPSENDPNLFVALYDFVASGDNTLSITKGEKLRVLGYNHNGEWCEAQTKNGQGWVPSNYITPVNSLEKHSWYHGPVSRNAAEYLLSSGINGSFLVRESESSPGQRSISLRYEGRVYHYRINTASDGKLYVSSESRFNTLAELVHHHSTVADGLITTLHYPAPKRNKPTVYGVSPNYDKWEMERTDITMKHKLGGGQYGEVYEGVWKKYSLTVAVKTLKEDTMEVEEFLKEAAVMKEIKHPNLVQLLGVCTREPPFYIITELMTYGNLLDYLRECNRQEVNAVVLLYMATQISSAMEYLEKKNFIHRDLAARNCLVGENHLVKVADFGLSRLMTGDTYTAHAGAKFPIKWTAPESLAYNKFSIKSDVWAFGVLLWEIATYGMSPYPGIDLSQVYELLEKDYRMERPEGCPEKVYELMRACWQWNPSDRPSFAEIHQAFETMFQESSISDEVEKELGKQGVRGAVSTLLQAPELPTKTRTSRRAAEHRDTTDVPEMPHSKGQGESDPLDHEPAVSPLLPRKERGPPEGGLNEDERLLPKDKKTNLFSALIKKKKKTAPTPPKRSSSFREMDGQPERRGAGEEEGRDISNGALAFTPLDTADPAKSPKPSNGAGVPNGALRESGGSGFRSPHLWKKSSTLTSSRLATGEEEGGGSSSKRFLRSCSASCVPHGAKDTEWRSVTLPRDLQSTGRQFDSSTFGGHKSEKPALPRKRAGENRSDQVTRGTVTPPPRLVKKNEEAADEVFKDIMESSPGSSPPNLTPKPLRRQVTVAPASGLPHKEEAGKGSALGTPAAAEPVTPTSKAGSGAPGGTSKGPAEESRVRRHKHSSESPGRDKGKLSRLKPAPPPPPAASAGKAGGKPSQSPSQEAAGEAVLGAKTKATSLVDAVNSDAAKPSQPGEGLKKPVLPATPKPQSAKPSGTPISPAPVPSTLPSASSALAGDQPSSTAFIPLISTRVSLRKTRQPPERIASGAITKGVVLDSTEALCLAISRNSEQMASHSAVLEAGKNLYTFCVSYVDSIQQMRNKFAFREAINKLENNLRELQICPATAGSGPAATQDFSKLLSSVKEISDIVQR
Chain of Tyrosine-protein kinase FRK (Homo sapiens) (P42685 whole entry): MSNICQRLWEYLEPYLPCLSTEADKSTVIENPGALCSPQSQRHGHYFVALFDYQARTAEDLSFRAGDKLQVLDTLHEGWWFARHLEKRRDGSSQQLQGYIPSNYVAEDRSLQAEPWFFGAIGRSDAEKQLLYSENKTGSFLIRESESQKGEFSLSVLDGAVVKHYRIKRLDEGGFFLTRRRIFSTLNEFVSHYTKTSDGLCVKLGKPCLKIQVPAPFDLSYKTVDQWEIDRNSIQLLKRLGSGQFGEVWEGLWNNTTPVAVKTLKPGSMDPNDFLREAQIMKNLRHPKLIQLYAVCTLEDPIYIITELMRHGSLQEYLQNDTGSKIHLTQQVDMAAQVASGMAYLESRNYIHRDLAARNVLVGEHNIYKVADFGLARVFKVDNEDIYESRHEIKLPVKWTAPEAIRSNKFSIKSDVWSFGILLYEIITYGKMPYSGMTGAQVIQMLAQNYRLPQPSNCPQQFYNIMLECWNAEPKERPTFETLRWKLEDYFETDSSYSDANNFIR
Chain of Ribosomal protein S6 kinase beta-1 (Homo sapiens) (P23443 whole entry, looked up): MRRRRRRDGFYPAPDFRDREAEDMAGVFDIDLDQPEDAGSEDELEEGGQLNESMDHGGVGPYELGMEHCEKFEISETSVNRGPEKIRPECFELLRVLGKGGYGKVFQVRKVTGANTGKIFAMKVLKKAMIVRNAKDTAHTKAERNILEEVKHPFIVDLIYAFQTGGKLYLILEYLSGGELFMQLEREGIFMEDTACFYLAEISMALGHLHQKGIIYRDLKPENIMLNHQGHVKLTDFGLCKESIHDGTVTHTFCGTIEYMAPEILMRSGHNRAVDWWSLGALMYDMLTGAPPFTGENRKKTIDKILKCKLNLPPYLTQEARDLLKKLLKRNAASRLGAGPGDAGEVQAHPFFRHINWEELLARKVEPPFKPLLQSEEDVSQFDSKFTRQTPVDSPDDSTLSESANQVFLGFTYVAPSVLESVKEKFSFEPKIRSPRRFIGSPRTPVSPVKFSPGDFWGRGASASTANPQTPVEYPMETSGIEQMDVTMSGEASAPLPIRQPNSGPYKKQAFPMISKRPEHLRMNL
Chain of Ribosomal protein S6 kinase alpha-5 (Homo sapiens) (O75582 whole entry, looked up): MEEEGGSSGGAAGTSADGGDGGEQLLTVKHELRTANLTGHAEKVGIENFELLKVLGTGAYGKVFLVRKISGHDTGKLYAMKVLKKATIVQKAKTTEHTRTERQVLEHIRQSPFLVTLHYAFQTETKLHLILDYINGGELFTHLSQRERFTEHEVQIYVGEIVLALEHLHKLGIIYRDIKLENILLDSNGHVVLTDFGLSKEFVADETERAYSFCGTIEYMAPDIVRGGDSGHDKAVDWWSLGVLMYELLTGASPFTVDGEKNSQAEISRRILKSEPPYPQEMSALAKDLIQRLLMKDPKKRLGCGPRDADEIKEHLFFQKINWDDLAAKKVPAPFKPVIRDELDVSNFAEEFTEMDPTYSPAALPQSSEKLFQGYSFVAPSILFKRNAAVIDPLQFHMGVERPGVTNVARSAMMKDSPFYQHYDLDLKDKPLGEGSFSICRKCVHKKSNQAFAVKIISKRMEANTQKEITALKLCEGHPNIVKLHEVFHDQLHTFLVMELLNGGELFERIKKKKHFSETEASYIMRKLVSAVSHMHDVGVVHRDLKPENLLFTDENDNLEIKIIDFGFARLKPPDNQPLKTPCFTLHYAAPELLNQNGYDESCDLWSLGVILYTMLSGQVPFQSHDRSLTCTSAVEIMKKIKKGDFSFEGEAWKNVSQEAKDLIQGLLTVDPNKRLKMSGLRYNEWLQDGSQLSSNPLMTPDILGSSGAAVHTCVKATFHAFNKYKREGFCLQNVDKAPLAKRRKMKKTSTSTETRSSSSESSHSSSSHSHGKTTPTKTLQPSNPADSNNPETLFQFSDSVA
Chain of Eukaryotic translation initiation factor 2-alpha kinase 1 (Homo sapiens) (Q9BQI3 whole entry): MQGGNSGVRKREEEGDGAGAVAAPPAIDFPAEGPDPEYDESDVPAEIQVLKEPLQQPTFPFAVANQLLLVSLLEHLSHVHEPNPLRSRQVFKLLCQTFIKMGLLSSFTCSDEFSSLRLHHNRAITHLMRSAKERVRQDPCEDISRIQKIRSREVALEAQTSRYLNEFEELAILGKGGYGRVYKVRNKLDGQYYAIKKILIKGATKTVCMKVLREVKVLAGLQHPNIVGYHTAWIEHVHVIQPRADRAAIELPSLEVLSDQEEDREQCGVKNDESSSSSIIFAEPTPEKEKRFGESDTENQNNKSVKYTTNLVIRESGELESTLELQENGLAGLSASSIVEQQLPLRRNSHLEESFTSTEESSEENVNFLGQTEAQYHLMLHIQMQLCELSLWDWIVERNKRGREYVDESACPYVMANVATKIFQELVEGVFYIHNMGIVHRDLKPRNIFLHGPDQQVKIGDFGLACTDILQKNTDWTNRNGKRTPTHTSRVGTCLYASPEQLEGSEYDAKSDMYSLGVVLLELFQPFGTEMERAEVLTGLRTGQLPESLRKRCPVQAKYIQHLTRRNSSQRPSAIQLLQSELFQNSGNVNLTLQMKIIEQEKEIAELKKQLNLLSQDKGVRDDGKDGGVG
Chain of Tyrosine-protein kinase ABL1 (Homo sapiens), P00519 [F317I] (P00519 whole entry F317I): as the sequence (P00519 whole entry F317L) above, with L317I counted along it

Compound: CCOCCn1cc(C(=O)Nc2ccc(-n3nc(-c4cccnc4)cc3C(F)(F)F)cn2)ccc1=O [BI 1935]
- residual activity [1]: 41%
- residual activity [2]: 97%
- residual activity [3]: 97%
- residual activity [4]: 91%
- residual activity [5]: 100%
- residual activity [6]: 79%
- residual activity [7]: 95%
- residual activity [8]: 100%
- residual activity [9]: 100%
- residual activity [10]: 100%
- residual activity [11]: 87%
- residual activity [12]: 86%
- residual activity [13]: 100%
- residual activity [14]: 100%
- residual activity [15]: 100%
- residual activity [16]: 84%
- residual activity [17]: 61%
- residual activity [18]: 100%
- residual activity [19]: 86%
- residual activity [20]: 100%
- residual activity [21]: 100%
- residual activity [22]: 100%
- residual activity [23]: 72%
- residual activity [24]: 37%
- residual activity [25]: 100%
- residual activity [26]: 84%
- residual activity [27]: 95%
- residual activity [28]: 100%
- residual activity [29]: 100%
- residual activity [30]: 100%
- residual activity [31]: 96%
- residual activity [32]: 88%
- residual activity [33]: 98%
- residual activity [34]: 91%
- residual activity [35]: 100%
- residual activity [36]: 100%
- residual activity [37]: 97%
- residual activity [38]: 90%
- residual activity [39]: 100%
- residual activity [40]: 87%
- residual activity [41]: 100%
- residual activity [42]: 100%
- residual activity [43]: 85%
- residual activity [44]: 75%
